Test results: PubChem BioAssay AID1963867 (Molecular Pharmacology Branch, DTP, NCI, 2024)

Test system: KRAS-mutant PDC tumor spheroid with HUVEC/MSC, viability
Assay: Anticancer human tumor 327498-153-R-J2-PDC patient-derived uterine carcinosarcoma cell line growth inhibition [KRAS2]
Conditions: for IC50: curve of first compound; for viability, T/C: stronger effect = lower value
Text: Multicellular complex tumor spheroid response to RAS pathway inhibitors in combination with a targeted agents in patient-derived cell lines with oncogenic KRAS variants from multiple cancer types
A high-throughput screen of multi-cell type tumor spheroids was designed to identify active combinations of targeted small molecules and KRAS pathway inhibitors. Complex spheroids include a stromal component modeled by human endothelial cells (HUVEC) and fibroblasts modeled by human mesenchymal stem cells (MSCs). The concentration ranges selected for each drug and investigational agent were based upon clinically achievable concentrations if the clinical Cmax of the agent was known.
Compounds. The drugs and investigational agents: BI-3406 (NSC825286), BAY-293 (NSC824723), batoprotafib (TNO155; NSC825523), sotorasib (AMG 510; NSC818433), MRTX1257 (NSC819558), elimusertib (BAY 1895344; NSC800525), molibresib (GSK525762; NSC774829), temuterkib (LY3214996; NSC803410), venetoclax (NSC766270), alisertib (NSC759677), olaparib (NSC753686), talazoparib (NSC767125), erdafitinib (NSC781556), ipatasertib (NSC767898), cabozantinib (NSC761068), nintedanib (NSC756659), abemaciclib (NSC768073), docetaxel (NSC628503), trametinib (NSC758246), and sapanisertib (NSC764658) were obtained from the National Cancer Institute (NCI) Developmental Therapeutics Program Chemical Repository. The FDA-approved anticancer drug set is available from the Developmental Therapeutics Program. […] The stock solutions were prepared in dimethyl sulfoxide (DMSO, Sigma-Aldrich, St. Louis, MO, cat. D2650) at 800-fold the tested concentration and stored at -70 degrees C prior to their use. All drugs and investigational agents were tested over a range starting from a high concentration at or near the clinical Cmax and decreasing in half-log increments. If the clinical Cmax for an agent had not been determined, the highest concentration tested was 10 microM.
Cell Culture. All cells were maintained in an incubator at 37 degrees C and 5% CO2 with 95% humidity. The PDC lines were cultured according to standard operating procedures established by the NCI PDMR (https://pdmr.cancer.gov/sops/default.htm). Briefly, all PDCs were thawed and cultured in Matrigel-coated flasks prepared with a working solution of 1X Ham's F-12 nutrient mix, without supplementation (Invitrogen, Waltham, MA, cat. 11765054), 100 U/mL penicillin-streptomycin (Invitrogen, cat. 15140122), and 2.5% Matrigel (Corning Inc., Corning, NY, cat. 354248) for the first three passages. All PDCs were cultured in complete DMEM/F-12 media containing advanced DMEM/F-12 (Invitrogen, cat. 12634028), 4.9% defined fetal bovine serum, heat inactivated (HyClone Laboratories Inc., Logan, UT, cat. SH30070.03HI), 389 ng/mL hydrocortisone (Sigma-Aldrich, cat. H4001), 9.7 ng/mL human EGF recombinant protein (Invitrogen, cat. PHG0313), 23.4 microg/mL adenine (Sigma-Aldrich, cat. A2786), 97.3 U/mL penicillin-streptomycin (Invitrogen, cat. 15140122), 1.9 mM L-glutamine (Invitrogen, cat. 25030081), and 9.7 microM Y-27632 dihydrochloride (Tocris Bioscience, Bristol, United Kingdom, cat. 1254). The PDCs were cultured in complete DMEM/F12 media without 9.7 microM Y-27632 dihydrochloride for at least two passages prior to the screen. The established cell line HOP-62 was cultured in RPMI 1640 medium, HEPES (Invitrogen, cat. 22400105) with 10% defined fetal bovine serum (HyClone Laboratories Inc., cat. SH30070.03) and 2 mM L-glutamine (Invitrogen, cat. 25030081). The pooled donor HUVEC were cultured in endothelial cell growth medium 2 (PromoCell, Heidelberg, Germany, cat. C-22011) and the hMSC were cultured in mesenchymal stem cell growth medium 2 (PromoCell, cat. C-28009). For all experiments, HUVEC and hMSC were used at passages </=5, while the malignant cell lines were used at passages </=15. […]

[1] = second compound 0.1 µM, first compound 0.000316 µM
[2] = second compound 0.1 µM, first compound 0.001 µM
[3] = second compound 0.1 µM, first compound 0.00316 µM
[4] = second compound 0.1 µM, first compound 0.01 µM
[5] = second compound 0.1 µM, first compound 0.0316 µM
[6] = second compound 0.316 µM, first compound 0.000316 µM
[7] = second compound 0.316 µM, first compound 0.001 µM
[8] = second compound 0.316 µM, first compound 0.00316 µM
[9] = second compound 0.316 µM, first compound 0.01 µM
[10] = second compound 0.316 µM, first compound 0.0316 µM
[11] = second compound 1 µM, first compound 0.000316 µM
[12] = second compound 1 µM, first compound 0.001 µM
[13] = second compound 1 µM, first compound 0.00316 µM
[14] = second compound 1 µM, first compound 0.01 µM
[15] = second compound 1 µM, first compound 0.0316 µM
[16] = second compound 3.16 µM, first compound 0.000316 µM
[17] = second compound 3.16 µM, first compound 0.001 µM
[18] = second compound 3.16 µM, first compound 0.00316 µM
[19] = second compound 3.16 µM, first compound 0.01 µM
[20] = second compound 3.16 µM, first compound 0.0316 µM
[21] = second compound 0.1 µM, first compound 0.1 µM
[22] = second compound 0.316 µM, first compound 0.1 µM
[23] = second compound 1 µM, first compound 0.1 µM
[24] = second compound 3.16 µM, first compound 0.1 µM
[25] = second compound 10 µM, first compound 0.0316 µM
[26] = second compound 10 µM, first compound 0.1 µM
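Note: spheroids exposed to agents for seven days before reading.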
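Throughout, for viability, T/C: 100% = DMSO vehicle wells so lower means fewer viable cells.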

SMILES: CC(=O)Nc1cccc(-n2c(=O)n(C3CC3)c(=O)c3c(Nc4ccc(I)cc4F)n(C)c(=O)c(C)c32)c1 + C=CC(=O)N1CCN(c2nc(OCC3CCCN3C)nc3c2CCN(c2cccc4cccc(C)c24)C3)CC1CC#N
- IC50 (second compound 0.0316 µM): 6.53 nM
- IC50 (second compound 0.1 µM): 5.43 nM
- IC50 (second compound 0.316 µM): 3.49 nM
- IC50 (second compound 1 µM): 0.128 nM
- IC50 (second compound 3.16 µM): < 0.1 nM
- viability, T/C (second compound 0.0316 µM, first compound 0.0001 µM): 72.7%
- viability, T/C (second compound 0.0316 µM, first compound 0.000316 µM): 64.8%
- viability, T/C (second compound 0.0316 µM, first compound 0.001 µM): 57.4%
- viability, T/C (second compound 0.0316 µM, first compound 0.00316 µM): 58%
- viability, T/C (second compound 0.0316 µM, first compound 0.01 µM): 49.1%
- viability, T/C (second compound 0.0316 µM, first compound 0.0316 µM): 31.4%
- viability, T/C (second compound 0.1 µM, first compound 0.0001 µM): 67.1%
- viability, T/C [1]: 68.3%
- viability, T/C [2]: 58.4%
- viability, T/C [3]: 53%
- viability, T/C [4]: 47.8%
- viability, T/C [5]: 25.4%
- viability, T/C (second compound 0.316 µM, first compound 0.0001 µM): 58.5%
- viability, T/C [6]: 54.6%
- viability, T/C [7]: 55.7%
- viability, T/C [8]: 48%
- viability, T/C [9]: 44.7%
- viability, T/C [10]: 25.5%
- viability, T/C (second compound 1 µM, first compound 0.0001 µM): 48.5%
- viability, T/C [11]: 52.4%
- viability, T/C [12]: 45.7%
- viability, T/C [13]: 41.9%
- viability, T/C [14]: 35.8%
- viability, T/C [15]: 22.1%
- viability, T/C (second compound 3.16 µM, first compound 0.0001 µM): 0.75%
- viability, T/C [16]: 0.19%
- viability, T/C [17]: 0.19%
- viability, T/C [18]: 0.22%
- viability, T/C [19]: 0.18%
- viability, T/C [20]: 0.31%

SMILES: CC(C)n1nc(-c2ccc3oc(N)nc3c2)c2c(N)ncnc21 + CC1OCC2(CCN(c3cnc(Sc4ccnc(N)c4Cl)c(N)n3)CC2)C1N
- IC50 (second compound 0.1 µM): 2.17 nM
- IC50 (second compound 0.316 µM): 0.756 nM
- IC50 (second compound 1 µM): < 0.316 nM
- IC50 (second compound 3.16 µM): < 0.316 nM
- IC50 (second compound 10 µM): < 0.316 nM
- viability, T/C [1]: 70.3%
- viability, T/C [2]: 72.7%
- viability, T/C [3]: 38.3%
- viability, T/C [4]: 18.5%
- viability, T/C [5]: 8.54%
- viability, T/C [21]: 5.56%
- viability, T/C [6]: 61.8%
- viability, T/C [7]: 46%
- viability, T/C [8]: 28.2%
- viability, T/C [9]: 14.3%
- viability, T/C [10]: 6.36%
- viability, T/C [22]: 4.27%
- viability, T/C [11]: 41.2%
- viability, T/C [12]: 32.8%
- viability, T/C [13]: 20%
- viability, T/C [14]: 10.4%
- viability, T/C [15]: 6.01%
- viability, T/C [23]: 3.72%
- viability, T/C [16]: 31.4%
- viability, T/C [17]: 22.6%
- viability, T/C [18]: 13.8%
- viability, T/C [19]: 8.15%
- viability, T/C [20]: 4.67%
- viability, T/C [24]: 3.18%
- viability, T/C (second compound 10 µM, first compound 0.000316 µM): 22.9%
- viability, T/C (second compound 10 µM, first compound 0.001 µM): 19.6%
- viability, T/C (second compound 10 µM, first compound 0.00316 µM): 11.7%
- viability, T/C (second compound 10 µM, first compound 0.01 µM): 7.42%
- viability, T/C [25]: 4.21%
- viability, T/C [26]: 3.29%

SMILES: COc1cc2nccc(Oc3ccc(NC(=O)C4(C(=O)Nc5ccc(F)cc5)CC4)cc3)c2cc1OC + COc1cc2nc(C)nc(NC(C)c3cc(N)cc(C(F)(F)F)c3)c2cc1OC1CCOC1
- IC50 (second compound 0.1 µM): 689 nM
- IC50 (second compound 0.316 µM): 534 nM
- IC50 (second compound 1 µM): 379 nM
- IC50 (second compound 3.16 µM): 385 nM
- IC50 (second compound 10 µM): < 31.6 nM
- viability, T/C [5]: 73.8%
- viability, T/C [21]: 82.3%
- viability, T/C (second compound 0.1 µM, first compound 0.316 µM): 74.6%
- viability, T/C (second compound 0.1 µM, first compound 1 µM): 26.7%
- viability, T/C (second compound 0.1 µM, first compound 3.16 µM): 0.88%
- viability, T/C (second compound 0.1 µM, first compound 10 µM): 87%
- viability, T/C [10]: 68.3%
- viability, T/C [22]: 60.8%
- viability, T/C (second compound 0.316 µM, first compound 0.316 µM): 64.5%
- viability, T/C (second compound 0.316 µM, first compound 1 µM): 28.7%
- viability, T/C (second compound 0.316 µM, first compound 3.16 µM): 0.85%
- viability, T/C (second compound 0.316 µM, first compound 10 µM): 68.5%
- viability, T/C [15]: 62.9%
- viability, T/C [23]: 54%
- viability, T/C (second compound 1 µM, first compound 0.316 µM): 53.9%
- viability, T/C (second compound 1 µM, first compound 1 µM): 22.9%
- viability, T/C (second compound 1 µM, first compound 3.16 µM): 0.96%
- viability, T/C (second compound 1 µM, first compound 10 µM): 63.1%
- viability, T/C [20]: 62.5%
- viability, T/C [24]: 57.3%
- viability, T/C (second compound 3.16 µM, first compound 0.316 µM): 54.2%
- viability, T/C (second compound 3.16 µM, first compound 1 µM): 22.1%
- viability, T/C (second compound 3.16 µM, first compound 3.16 µM): 0.52%
- viability, T/C (second compound 3.16 µM, first compound 10 µM): 67.3%
- viability, T/C [25]: 50.6%
- viability, T/C [26]: 44.8%
- viability, T/C (second compound 10 µM, first compound 0.316 µM): 40.5%
- viability, T/C (second compound 10 µM, first compound 1 µM): 12.1%
- viability, T/C (second compound 10 µM, first compound 3.16 µM): 0.37%
- viability, T/C (second compound 10 µM, first compound 10 µM): 57.9%
